In patent US9133115B2 (ACHILLION PHARMACEUTICALS, INC., priority 2008, dated 2015):

system: HCV replicon; assay: HCV replicon replication assay (NPT ELISA) in Huh-7 replicon-containing cells; type: cell-based; settings: Hepatitis C virus, 72 h; HCV replicon in Huh-7 cells, three days incubation; read-out: EC50
Outline: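 Replication was scored by capture ELISA of neomycin phosphotransferase, whose level tracks replicon replication, after graded compound treatment. The cells were Huh-7 harbouring an HCV-IRES/neo/EMCV-IRES/NS3–NS5B/3′-NTR replicon, plated at 6000-7500 cells/well and dosed 24 h later at 60-70% confluence; interferon alpha was the positive control.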

SMILES	EC50 [µM]
C=C[C@@H]1C[C@]1(NC(=O)[C@@H]1C[C@@H](Oc2cc(-c3ccccn3)nc3c(Cl)c(OC)ccc23)CN1C(=O)[C@@H](CC(=O)N1CCOCC1)C(C)(C)C)C(=O)NS(=O)(=O)C1CC1 [Compound 180, (2S,4R)-1-((S)-2-tert-butyl-4-morpholino-4-oxobutanoyl)-4-(8-chloro-7-methoxy-2-(pyridin-2-yl)quinolin-4-yloxy)-N-((1R,2S)-1-(cyclopropyl-sulfonylcarbamoyl)-2-vinyl-cyclopropyl)pyr-rolidine-2-carboxamide]	< 1
C=C[C@@H]1C[C@]1(NC(=O)[C@@H]1C[C@@H](Oc2cc(-c3ccccn3)nc3c(Cl)c(OC)ccc23)CN1C(=O)[C@@H](CC(=O)N1CCCC(F)(F)C1)C(C)(C)C)C(=O)NS(=O)(=O)C1CC1 [Compound 181, (2S,4R)-1-((S)-2-tert-butyl-4-(3,3-difluoropiperidin-1-yl)-4-oxobutanoyl)-4-(8-chloro-7-methoxy-2-(pyridin-2-yl)quinolin-4-yloxy)-N-((1R,2S)-1-(cyclopropyl-sulfonylcarbamoyl)-2-vinyl-cyclopropyl)pyr-rolidine-2-carboxamide]	< 1
C=C[C@@H]1C[C@]1(NC(=O)[C@@H]1C[C@@H](Oc2cc(-c3ccccc3)nc3cc(OC)ccc23)CN1C(=O)[C@@H](CC(=O)N1CCC(c2ccccc2)CC1)C(C)(C)C)C(=O)NS(=O)(=O)C1CC1 [Compound 182, (2S,4R)-1-((S)-2-tert-butyl-4-oxo-4-(4-phenylpiperidin-1-yl)butanoyl)-N-((1R,2S)-1-(cyclopropylsulfonyl-carbamoyl)-2-vinylcyclopropyl)-4-(7-methoxy-2-phenylquinolin-4-yloxy)pyrrolidine-2-carboxamide]	< 1
C=C[C@@H]1C[C@]1(NC(=O)[C@@H]1C[C@@H](Oc2cc(-c3ccccc3)nc3cc(OC)ccc23)CN1C(=O)[C@@H](CC(=O)N1CCCC2CCCCC21)C(C)(C)C)C(=O)NS(=O)(=O)C1CC1 (stereo partly drawn) [Compound 183, (2S,4R)-1-((2S)-2-tert-butyl-4-(octa-hydroquinolin-1(2H)-yl)-4-oxobutanoyl)-N-((1R,2S)-1-(cyclopropylsulfonyl-carbamoyl)-2-vinylcyclopropyl)-4-(7-methoxy-2-phenylquinolin-4-yloxy)pyrrolidine-2-carboxamide]	< 1
C=C[C@@H]1C[C@]1(NC(=O)[C@@H]1C[C@@H](Oc2cc(-c3ccccc3)nc3cc(OC)ccc23)CN1C(=O)[C@@H](CC(=O)N1CC[C@@H](NC(=O)OC(C)(C)C)C1)C(C)(C)C)C(=O)NS(=O)(=O)C1CC1 [Compound 184, tert-butyl (R)-1-((S)-3-((2S,4R)-2-((1R,2S)-1-(cyclo-propylsulfonyl-carbamoyl)-2-vinyl-cyclopropyl-carbamoyl)-4-(7-methoxy-2-phenylquinolin-4-yloxy)pyrrolidine-1-carbonyl)-4,4-dime-thylpentanoyl)pyr-rolidin-3-ylcarbamate]	< 1
C=CC1C[C@]1(NC(=O)[C@@H]1C[C@@H](Oc2cc(-c3ccccc3)nc3cc(OC)ccc23)CN1C(=O)[C@@H](CC(=O)N1CC(C)CC(C)C1)C(C)(C)C)C(=O)NS(=O)(=O)C1CC1 (stereo partly drawn) [Compound 185]	< 1
C=C[C@@H]1C[C@]1(NC(=O)[C@@H]1C[C@@H](NC(=O)n2c3ccccc3c3ccccc32)CN1C(=O)[C@@H](CC(=O)N1CCC(F)(F)C1)C(C)(C)C)C(=O)NS(=O)(=O)C1CC1 [Compound 186, N-((3R,5S)-1-((S)-2-tert-butyl-4-(3,3-difluoropyrrolidin-1-yl)-4-oxobutanoyl)-5-((1R,2S)-1-(cyclopropylsulfonyl-carbamoyl)-2-vinyl-cyclopropyl-carbamoyl)pyrrolidin-3-yl)-9H-carbazole-9-carboxamide]	< 1
C=C[C@@H]1C[C@]1(NC(=O)[C@@H]1C[C@@H](NC(=O)n2c3ccccc3c3ccccc32)CN1C(=O)[C@@H](CC(=O)N1CCC(F)(F)CC1)C(C)(C)C)C(=O)NS(=O)(=O)C1CC1 [Compound 187, N-((3R,5S)-1-((S)-2-tert-butyl-4-(4,4-difluoropiperidin-1-yl)-4-oxobutanoyl)-5-((1R,2S)-1-(cyclopropylsulfonyl-carbamoyl)-2-vinyl-cyclopropyl-carbamoyl)pyrrolidin-3-yl)-9H-carbazole-9-carboxamide]	< 1
C=C[C@@H]1C[C@]1(NC(=O)[C@@H]1C[C@@H](NC(=O)n2c3ccccc3c3ccccc32)CN1C(=O)[C@@H](CC(=O)N1CCCC(F)C1)C(C)(C)C)C(=O)NS(=O)(=O)C1CC1 (stereo partly drawn) [Compound 188, N-((3R,5S)-1-((2S)-2-tert-butyl-4-(3-fluoropiperidin-1-yl)-4-oxobutanoyl)-5-((1R,2S)-1-(cyclopropylsulfonyl-carbamoyl)-2-vinyl-cyclopropyl-carbamoyl)pyrrolidin-3-yl)-9H-carbazole-9-carboxamide]	< 1
C=C[C@@H]1C[C@]1(NC(=O)[C@@H]1C[C@@H](NC(=O)n2c3ccccc3c3ccccc32)CN1C(=O)[C@@H](CC(=O)N1CCC(F)CC1)C(C)(C)C)C(=O)NS(=O)(=O)C1CC1 [Compound 189, N-((3R,5S)-1-((S)-2-tert-butyl-4-(4-fluoropiperidin-1-yl)-4-oxobutanoyl)-5-((1R,2S)-1-(cyclo-propylsulfonyl-carbamoyl)-2-vinylcyclopropyl-carbamoyl)pyrrolidin-3-yl)-9H-carbazole-9-carboxamide]	< 1
C=C[C@@H]1C[C@]1(NC(=O)[C@@H]1C[C@@H](NC(=O)n2c3ccccc3c3ccccc32)CN1C(=O)[C@@H](CC(=O)N1CCC(C(F)(F)F)CC1)C(C)(C)C)C(=O)NS(=O)(=O)C1CC1 [Compound 190, N-((3R,5S)-1-((S)-2-tert-butyl-4-oxo-4-(4-(trifluoromethyl)piper-idin-1-yl)butanoyl)-5-((1R,2S)-1-(cyclopropylsulfonyl-carbamoyl)-2-vinylcyclopropyl-carbamoyl)pyrrolidin-3-yl)-9H-carbazole-9-carboxamide]	< 1
C=C[C@@H]1C[C@]1(NC(=O)[C@@H]1C[C@@H](N(Cc2ccccn2)C(=O)n2c3ccccc3c3ccccc32)CN1C(=O)[C@@H](CC(=O)N1CCCCC1)C(C)(C)C)C(=O)NS(=O)(=O)C1CC1 [Compound 191, N-((3R,5S)-1-((S)-2-tert-butyl-4-oxo-4-(piperidin-1-yl)butanoyl)-5-((1R)-1-(cyclopropylsulfonyl-carbamoyl)-2-vinyl-cyclopropyl-carbamoyl)pyrrolidin-3-yl)-N-(pyridin-2-ylmethyl)-9H-carbazole-9-carboxamide]	< 1
C=C[C@@H]1C[C@]1(NC(=O)[C@@H]1C[C@@H](N(Cc2ccccn2)C(=O)n2c3ccccc3c3ccccc32)CN1C(=O)[C@@H](CC(=O)N1CCCC(F)(F)C1)C(C)(C)C)C(=O)NS(=O)(=O)C1CC1 [Compound 192, N-((3R,5S)-1-((S)-2-tert-butyl-4-(3,3-difluoropiperidin-1-yl)-4-oxobutanoyl)-5-((1R)-1-(cyclopropylsulfonyl-carbamoyl)-2-vinylcyclopropyl-carbamoyl)pyrrolidin-3-yl)-N-(pyridin-2-ylmethyl)-9H-carbazole-9-carboxamide]	< 1
C=C[C@@H]1C[C@]1(NC(=O)[C@@H]1C[C@@H](N(Cc2ccccn2)C(=O)n2c3ccccc3c3ccccc32)CN1C(=O)[C@@H](CC(=O)N1CCC(F)(F)C1)C(C)(C)C)C(=O)NS(=O)(=O)C1CC1 [Compound 193, N-((3R,5S)-1-((S)-2-tert-butyl-4-(3,3-difluoropyrrolidin-1-yl)-4-oxobutanoyl)-5-((1R)-1-(cyclopropylsulfonyl-carbamoyl)-2-vinylcyclopropyl-carbamoyl)pyrrolidin-3-yl)-N-(pyridin-2-ylmethyl)-9H-carbazole-9-carboxamide]	< 1
C=C[C@@H]1C[C@]1(NC(=O)[C@@H]1C[C@@H](Oc2cc(-c3ccccn3)nc3c(Cl)c(OC)ccc23)CN1C(=O)[C@@H](CC(=O)N1CCC(F)(F)CC1)C(C)(C)C)C(=O)NS(=O)(=O)C1CC1 [Compound 194, (2S,4R)-1-((S)-2-tert-butyl-4-(4,4-difluoropiperidin-1-yl)-4-oxobutanoyl)-4-(8-chloro-7-methoxy-2-(pyridin-2-yl)quinolin-4-yloxy)-N-((1R)-1-(cyclopropyl-sulfonylcarbamoyl)-2-vinyl-cyclopropyl)pyr-rolidine-2-carboxamide]	< 1
C=C[C@@H]1C[C@]1(NC(=O)[C@@H]1C[C@@H](Oc2cc(-c3ccccc3)nc3cc(OC)ccc23)CN1C(=O)[C@@H](CC(=O)N1CCN(S(=O)(=O)CC)CC1)C(C)(C)C)C(=O)NS(=O)(=O)C1CC1 [Compound 195, (2S,4R)-1-((S)-2-tert-butyl-4-(4-(ethylsulfonyl)piper-azin-1-yl)-4-oxobutanoyl)-N-((1R)-1-(cyclopropylsulfonyl-carbamoyl)-2-vinylcyclopropyl)-4-(7-methoxy-2-phenylquinolin-4-yloxy)pyrrolidine-2-carboxamide]	< 1
C=C[C@@H]1C[C@]1(NC(=O)[C@@H]1C[C@@H](Oc2cc(-c3ccccc3)nc3cc(OC)ccc23)CN1C(=O)[C@@H](CC(=O)N1CCN(c2cnccn2)CC1)C(C)(C)C)C(=O)NS(=O)(=O)C1CC1 [Compound 196, (2S,4R)-1-((S)-2-tert-butyl-4-oxo-4-(4-(pyrazin-2-yl)piperazin-1-yl)butanoyl)-N-((1R,2S)-1-(cyclopropyl-sulfonylcarbamoyl)-2-vinylcyclopropyl)-4-(7-methoxy-2-phenylquinolin-4-yloxy)pyrrolidine-2-carboxamide]	< 1
C=C[C@@H]1C[C@]1(NC(=O)[C@@H]1C[C@@H](NC(=O)n2c3ccccc3c3ccccc32)CN1C(=O)[C@@H](CC(=O)N1CC2CC3CC(C2)CC1C3)C(C)(C)C)C(=O)NS(=O)(=O)C1CC1 [Compound 197]	< 1
